Measurements taken from patent US8722014B2, “1 H-[1, 2, 3] triazole substituted amino acids and uses thereof” (Washington University, priority 2009, dated 2014).
“And” between values parts separate entries of the source, which are not always exact repeats. Equal entries are not always repeated. Where two headings read alike, the source gives them in different places.

Experiments:
9L gliosarcoma cells = assay: Cell uptake assay in 9L gliosarcoma cells with amino acid transport inhibitors (cluster tray method); format: cell-based; conditions: for percent uptake relative to control, Na ASC: L-Ala/L-Ser/L-Cys 3.3 mM each
Experimental: The 9L gliosarcoma tumor is an established model for human glioblastoma (brain tumor). Cell uptake assays were performed with 9L gliosarcoma cells using both (R)-[^18F]4 and (S)-[^18F]4. 9L gliosarcoma cells were cultured with Earle's minimal essential medium (MEM) augmented with 10% newborn calf serum, 1% 200 mM L-glutamine, 1% MEM vitamin solution and 1% 10 mM non-essential amino acids (NEAA). The cells were passaged every two to three days prior to use with no more than a total of 20 passages. Two to three days before the uptake assays, suspension of 2.5 or 5.0×10^4 cells in culture media were aliquoted into Costar 24 well plates to achieve log growth phase with approximately 70% confluency at the time of the uptake assay (approximately 10^5 cells per well).
Cell uptake assays were performed using the cluster tray method reported in Gazzola et al., Anal. Biochem. 115: 368-374, 1981. Two buffers were used for the assays, a phosphate buffered saline solution and a sodium-free phosphate buffered choline chloride solution. […] The choline buffer was the same as the sodium buffer except choline chloride was substituted for sodium chloride and choline phosphate dibasic was substituted for sodium phosphate dibasic. A 250 mM solution of choline phosphate dibasic was prepared by boiling 95.6 mL of 75% of choline bicarbonate (0.500 mol) and 16.9 mL of 85% aqueous phosphoric acid (0.247 mol) in 750 mL of water for 60 min. The solution was brought to a total volume of 1 liter with water and brought to pH 7.4 with concentrated aqueous hydrochloric acid. The pH of the sodium and choline buffer solutions was adjusted to 7.4 with concentrated aqueous hydrochloric acid prior to use.
A variety of inhibitor conditions were used to determine which amino acid transport system or systems were responsible for cellular uptake of (R)- and (S)-[^18F]-4. The N-methylated amino acid, methylaminoisobutyric acid (MeAIB), is a selective system A substrate and has been used extensively as a competitive inhibitor of system A transport (Shotwell, M. A., et al. Biochem. Biophys. Acta. 737: 267-284, 1983; Christensen, H. N., et al., J. Biol. Chem. 240: 3609-3616, 1965) The bulky neutral amino acid, 2-aminobicyclo-(2,2,1)-heptane-2-carboxylic acid (BCH), has been extensively used as a competitive inhibitor of system L transport, and under sodium-free conditions BCH is a selective system L inhibitor (Palacin, M., et al., Physiol. Rev. 78: 969-1054, 1998. In the presence of sodium, BCH is also an inhibitor of system B^0,+ which is a sodium-dependent amino acid transporter that typically is a minor transport systems in most tissues. A mixture of L-alanine (L-Ala), L-serine (L-Ser) and L-cysteine (L-Cys), (ASC), was used as a non-specific inhibitor condition, and this combination of amino acids is expected to inhibit a broad range of amino acid transport systems including system ASC. Because of the results of initial cell uptake assays described below and the structural relationship of the 1H-1,2,3-triazole group to the imidazole side chain of L-histidine (L-His), additional uptake assays using L-His as well as the basic side chain amino acids L-arginine (L-Arg) and L-lysine (L-Lys) individually and together (RKH) as competitive inhibitors were performed.
The following inhibitors were added to the appropriate sodium or choline buffer: N-methyl aminoisobutyric acid (MeAIB, 10 mM), a mixture of L-alanine/L-serine/L-cysteine (ASC, 3.3 mM of each amino acid), (R,S)-(endo,exo)-2-aminobicyclo(2,2,1)-heptane-2-carboxylic acid (BCH, 10 mM), L-arginine (Arg, 10 mM), L-lysine (Lys, 10 mM), L-histidine (His, 10 mM) and a mixture of Arg/Lys/H is (RKH, 3.3 mM of each amino acid). For control conditions, 10 mM of sucrose was added to maintain consistent osmolality relative to the inhibitor conditions. The pH of each solution of inhibitor in buffer was adjusted as necessary to 7.40 with 3 M aqueous hydrochloric acid prior to use in cell uptake assays. […]

[1] = test system: subcutaneous 9L gliosarcoma tumors
Experimental: Biodistribution studies were performed with both enantiomers, (R)-[^18F]4 and (S)-[^18F]4, using Fischer 344 rats (Charles River Laboratories, Wilmington Mass., USA) implanted with subcutaneous 9L gliosarcoma tumors. The tumors were implanted by subcutaneous injection of a suspension of approximately 1×10^69L gliosarcoma cells into the flanks of the rats. The tumors were allowed to grow for 3 weeks prior to the study. The rats were allowed food and water ad libitum prior to the biodistribution study. Anesthesia was achieved using a mixture of 1% isoflurane in oxygen, and the radiolabeled amino acid (R)-[^18F]4 or (S)-[^18F]4 was injected intravenously through a tail vein. The animals were euthanized in groups of four for each enantiomer at 5, 30 or 60 minutes after injection. The organs and tissues of interest and the tumors were dissected and weighed, and the amounts of activity were measured and decay corrected to the time of injection with a gamma counter. Standards for the doses were also measured with a gamma counter, and the data were normalized as the percent of total dose per gram of tissue (% ID/g) for each sample. The data were analyzed using GraphPad Prism software with 1-way ANOVAs for each enantiomer at each time point with Bonferroni post-tests. The tumor and brain uptake of radioactivity was directly compared for both enantiomers at each time point with a 2-way ANOVA with Bonferroni post-test. p-values less than or equal to 0.05 were considered statistically significant.

Cl.N[C@H](Cc1cn(CC[18F])nn1)C(=O)O [(R)-[^18F]4, (R)-2-amino-3-[1-(2-fluoroethyl)-1H-[1,2,3]triazol-4-yl]propanoic acid hydrochloride salt-[^18F]]
inhibition of uptake by ASC condition relative to the sodium control (9L gliosarcoma cells; neutral amino acid inhibitor assay, p<0.001): 36%
uptake mediated by system L or cationic amino acid transport systems (9L gliosarcoma cells; same uptake assays with inhibitors): did not demonstrate significant uptake
inhibition of uptake by ASC condition relative to the sodium control (9L gliosarcoma cells; second independent assay, p<0.01): 33%
percent uptake relative to control, Na RKH (9L gliosarcoma cells; sodium buffer, Arg/Lys/His 3.3 mM each (FIG. 4/6)): 82±4%
percent uptake relative to control, Na BCH (9L gliosarcoma cells; sodium buffer, BCH 10 mM, 30 sec uptake, neutral amino acid inhibitor assay (FIG. 3/5)): 110±11%
percent uptake relative to control, Na ASC (9L gliosarcoma cells; sodium buffer, 30 sec uptake, neutral amino acid inhibitor assay (FIG. 3/5)): 64±6%
percent uptake relative to control, Na ASC (9L gliosarcoma cells; sodium buffer, basic side chain amino acid inhibitor assay (FIG. 4/6)): 67±15%
percent uptake relative to control, Na Arg (9L gliosarcoma cells; sodium buffer, L-arginine 10 mM (FIG. 4/6)): 83±7%
percent uptake relative to control, Na His (9L gliosarcoma cells; sodium buffer, L-histidine 10 mM (FIG. 4/6)): 91±10%
percent uptake relative to control, Na Lys (9L gliosarcoma cells; sodium buffer, L-lysine 10 mM (FIG. 4/6)): 104±8%
percent uptake relative to control, Na MeAIB (9L gliosarcoma cells; sodium buffer, MeAIB 10 mM, 30 sec uptake, neutral amino acid inhibitor assay (FIG. 3/5)): 97±7%
percent uptake relative to control, Cho BCH (9L gliosarcoma cells; sodium-free choline buffer, BCH 10 mM, relative to sodium control (FIG. 3/5)): 95±4%
percent uptake relative to control, Cho sucrose (9L gliosarcoma cells; sodium-free choline buffer, sucrose 10 mM, relative to sodium control (FIG. 3/5)): 107±14%
biodistribution: blood ([1]; 5 min after i.v. injection): 0.90 ± 0.166 % ID/g
biodistribution: bone ([1]; 5 min after i.v. injection): 0.32 ± 0.083 % ID/g
biodistribution: brain ([1]; 5 min after i.v. injection): 0.09 ± 0.015 % ID/g
biodistribution: fat ([1]; 5 min after i.v. injection): 0.10 ± 0.044 % ID/g
biodistribution: heart ([1]; 5 min after i.v. injection): 0.42 ± 0.076 % ID/g
biodistribution: kidney ([1]; 5 min after i.v. injection): 14.01 ± 3.826 % ID/g
biodistribution: large intestine ([1]; 5 min after i.v. injection): 0.15 ± 0.043 % ID/g
biodistribution: liver ([1]; 5 min after i.v. injection): 0.54 ± 0.153 % ID/g
biodistribution: lung ([1]; 5 min after i.v. injection): 0.74 ± 0.143 % ID/g
biodistribution: muscle ([1]; 5 min after i.v. injection): 0.18 ± 0.049 % ID/g
biodistribution: pancreas ([1]; 5 min after i.v. injection): 0.53 ± 0.126 % ID/g
biodistribution: salivary gland ([1]; 5 min after i.v. injection): 0.46 ± 0.083 % ID/g
biodistribution: small intestine ([1]; 5 min after i.v. injection): 0.32 ± 0.079 % ID/g
biodistribution: spleen ([1]; 5 min after i.v. injection): 0.33 ± 0.065 % ID/g
biodistribution: testes ([1]; 5 min after i.v. injection): 0.18 ± 0.042 % ID/g
biodistribution: thyroid ([1]; 5 min after i.v. injection): 0.64 ± 0.092% of total dose per organ
biodistribution: tumor ([1]; 5 min after i.v. injection): 0.27 ± 0.042 % ID/g
tumor:brain ratio ([1]; 5 min after i.v. injection): 3.2
biodistribution: blood ([1]; 30 min after i.v. injection): 0.28 ± 0.037 % ID/g
biodistribution: bone ([1]; 30 min after i.v. injection): 0.13 ± 0.027 % ID/g
biodistribution: brain ([1]; 30 min after i.v. injection): 0.04 ± 0.005 % ID/g
biodistribution: fat ([1]; 30 min after i.v. injection): 0.03 ± 0.012 % ID/g
biodistribution: heart ([1]; 30 min after i.v. injection): 0.13 ± 0.014 % ID/g
biodistribution: kidney ([1]; 30 min after i.v. injection): 6.76 ± 0.830 % ID/g
biodistribution: large intestine ([1]; 30 min after i.v. injection): 0.08 ± 0.060 % ID/g
biodistribution: liver ([1]; 30 min after i.v. injection): 0.58 ± 0.074 % ID/g
biodistribution: lung ([1]; 30 min after i.v. injection): 0.54 ± 0.211 % ID/g
biodistribution: muscle ([1]; 30 min after i.v. injection): 0.08 ± 0.020 % ID/g
biodistribution: pancreas ([1]; 30 min after i.v. injection): 0.50 ± 0.105 % ID/g
biodistribution: salivary gland ([1]; 30 min after i.v. injection): 0.20 ± 0.016 % ID/g
biodistribution: small intestine ([1]; 30 min after i.v. injection): 0.30 ± 0.154 % ID/g
biodistribution: spleen ([1]; 30 min after i.v. injection): 0.18 ± 0.004 % ID/g
biodistribution: testes ([1]; 30 min after i.v. injection): 0.08 ± 0.011 % ID/g
biodistribution: thyroid ([1]; 30 min after i.v. injection): 0.21 ± 0.023% of total dose per organ
biodistribution: tumor ([1]; 30 min after i.v. injection): 0.29 % ID/g and 0.29 ± 0.132 % ID/g
tumor:brain ratio ([1]; 30 min after i.v. injection): 8.8
biodistribution: blood ([1]; 60 min after i.v. injection): 0.14 ± 0.015 % ID/g
biodistribution: bone ([1]; 60 min after i.v. injection): 0.08 ± 0.007 % ID/g
biodistribution: brain ([1]; 60 min after i.v. injection): 0.02 ± 0.001 % ID/g
biodistribution: fat ([1]; 60 min after i.v. injection): 0.02 ± 0.002 % ID/g
biodistribution: heart ([1]; 60 min after i.v. injection): 0.08 ± 0.006 % ID/g
biodistribution: kidney ([1]; 60 min after i.v. injection): 2.39 ± 0.138 % ID/g
biodistribution: large intestine ([1]; 60 min after i.v. injection): 0.05 ± 0.002 % ID/g
biodistribution: liver ([1]; 60 min after i.v. injection): 0.48 ± 0.023 % ID/g
biodistribution: lung ([1]; 60 min after i.v. injection): 0.37 ± 0.100 % ID/g
biodistribution: muscle ([1]; 60 min after i.v. injection): 0.05 ± 0.006 % ID/g
biodistribution: pancreas ([1]; 60 min after i.v. injection): 0.43 ± 0.063 % ID/g
biodistribution: salivary gland ([1]; 60 min after i.v. injection): 0.15 ± 0.009 % ID/g
biodistribution: small intestine ([1]; 60 min after i.v. injection): 0.35 ± 0.015 % ID/g
biodistribution: spleen ([1]; 60 min after i.v. injection): 0.14 ± 0.002 % ID/g
biodistribution: testes ([1]; 60 min after i.v. injection): 0.05 ± 0.002 % ID/g
biodistribution: thyroid ([1]; 60 min after i.v. injection): 0.12 ± 0.010% of total dose per organ
biodistribution: tumor ([1]; 60 min after i.v. injection): 0.17 ± 0.009 % ID/g
tumor:brain ratio ([1]; 60 min after i.v. injection): 6.9
